In PubChem BioAssay AID1963986 (Molecular Pharmacology Branch, DTP, NCI, 2024):

Tested on: 171881-019-R-J1-PDC tumor spheroid viability
Test: Anticancer human tumor 171881-019-R-J1-PDC patient-derived invasive breast carcinoma cell line growth inhibition [PI3K]
Settings: spheroids with HUVEC and MSC; for IC50: curve of first compound; for viability, T/C: stronger effect = lower value
Method in brief: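 Spheroid viability read-out. Co-cultures contained the tumor line plus HUVEC and human MSCs. Each agent was paired with a PI3K inhibitor (inavolisib, alpelisib, duvelisib, copanlisib) across half-log dilutions starting at clinical Cmax, or at 10 microM when Cmax was unknown.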

[1] = second compound 0.0316 µM, first compound 0.0316 µM
[2] = second compound 0.0316 µM, first compound 0.1 µM
[3] = second compound 0.0316 µM, first compound 0.316 µM
[4] = second compound 0.0316 µM, first compound 1 µM
[5] = second compound 0.0316 µM, first compound 3.16 µM
[6] = second compound 0.0316 µM, first compound 10 µM
[7] = second compound 0.1 µM, first compound 0.0316 µM
[8] = second compound 0.1 µM, first compound 0.1 µM
[9] = second compound 0.1 µM, first compound 0.316 µM
[10] = second compound 0.1 µM, first compound 1 µM
[11] = second compound 0.1 µM, first compound 3.16 µM
[12] = second compound 0.1 µM, first compound 10 µM
[13] = second compound 0.316 µM, first compound 0.0316 µM
[14] = second compound 0.316 µM, first compound 0.1 µM
[15] = second compound 0.316 µM, first compound 0.316 µM
[16] = second compound 0.316 µM, first compound 1 µM
[17] = second compound 0.316 µM, first compound 3.16 µM
[18] = second compound 0.316 µM, first compound 10 µM
[19] = second compound 1 µM, first compound 0.0316 µM
[20] = second compound 1 µM, first compound 0.1 µM
[21] = second compound 1 µM, first compound 0.316 µM
[22] = second compound 1 µM, first compound 1 µM
[23] = second compound 1 µM, first compound 3.16 µM
[24] = second compound 1 µM, first compound 10 µM
[25] = second compound 3.16 µM, first compound 0.0316 µM
[26] = second compound 3.16 µM, first compound 0.1 µM
[27] = second compound 3.16 µM, first compound 0.316 µM
[28] = second compound 3.16 µM, first compound 1 µM
[29] = second compound 3.16 µM, first compound 3.16 µM
[30] = second compound 3.16 µM, first compound 10 µM
[31] = second compound 10 µM, first compound 0.0316 µM
[32] = second compound 10 µM, first compound 0.1 µM
[33] = second compound 10 µM, first compound 0.316 µM
[34] = second compound 10 µM, first compound 1 µM
[35] = second compound 10 µM, first compound 3.16 µM
[36] = second compound 10 µM, first compound 10 µM
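Also: spheroids exposed to compound for 7 days before viability read.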
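For viability, T/C in this document: 100% = DMSO vehicle-treated spheroids.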

Compound `CC1(C)CCC(CN2CCN(c3ccc(C(=O)NS(=O)(=O)c4ccc(NCC5CCOCC5)c([N+](=O)[O-])c4)c(Oc4cnc5[nH]ccc5c4)c3)CC2)=C(c2ccc(Cl)cc2)C1` + Cc1nc(NC(=O)N2CCCC2C(N)=O)sc1-c1ccnc(C(C)(C)C(F)(F)F)c1 has an IC50 (second compound 0.0316 µM) of 3.84 µM, an IC50 (second compound 0.1 µM) of 3.34 µM and an IC50 (second compound 0.316 µM) of 1.53 µM. For the same compound, the IC50 (second compound 1 µM) was < 0.0316 µM, the IC50 (second compound 3.16 µM) was < 0.0316 µM and the IC50 (second compound 10 µM) was < 0.0316 µM. The viability, T/C [1] was 102%, the viability, T/C [2] was 86.9% and the viability, T/C [3] was 90.8%. It also gave a viability, T/C [4] of 81.5%, a viability, T/C [5] of 56.6% and a viability, T/C [6] of 13.9%. It also gave a viability, T/C [7] of 94.3%, a viability, T/C [8] of 70.6% and a viability, T/C [9] of 75.5%. It also gave a viability, T/C [10] of 73.7%, a viability, T/C [11] of 52% and a viability, T/C [12] of 13.1%. For the same compound, the viability, T/C [13] was 54.8%, the viability, T/C [14] was 52.6% and the viability, T/C [15] was 56.1%. For the same compound, the viability, T/C [16] was 57.6%, the viability, T/C [17] was 41% and the viability, T/C [18] was 10.3%. For the same compound, the viability, T/C [19] was 33.8%, the viability, T/C [20] was 34.3% and the viability, T/C [21] was 33.6%. The viability, T/C [22] was 33.4%, the viability, T/C [23] was 31.6% and the viability, T/C [24] was 8.49%. For the same compound, the viability, T/C [25] was 13.2%, the viability, T/C [26] was 14.2% and the viability, T/C [27] was 12.7%. The viability, T/C [28] was 14.6%, the viability, T/C [29] was 15.9% and the viability, T/C [30] was 5.35%. The viability, T/C [31] was 3.36%, the viability, T/C [32] was 3.47% and the viability, T/C [33] was 3.28%. For the same compound, the viability, T/C [34] was 3.12%, the viability, T/C [35] was 3.52% and the viability, T/C [36] was 2.22%.

For `CCCS(=O)(=O)Nc1ccc(F)c(C(=O)c2c[nH]c3ncc(-c4ccc(Cl)cc4)cc23)c1F` + Cc1nc(NC(=O)N2CCCC2C(N)=O)sc1-c1ccnc(C(C)(C)C(F)(F)F)c1, the IC50 (second compound 0.0316 µM) was 5.56 µM, the IC50 (second compound 0.1 µM) was 5.71 µM and the IC50 (second compound 0.316 µM) was 4.72 µM. For the same compound, the IC50 (second compound 1 µM) was < 0.0316 µM, the IC50 (second compound 3.16 µM) was < 0.0316 µM and the IC50 (second compound 10 µM) was < 0.0316 µM. It also gave a viability, T/C [1] of 97.5%, a viability, T/C [2] of 91% and a viability, T/C [3] of 97.2%. It also gave a viability, T/C [4] of 92.2%, a viability, T/C [5] of 86.9% and a viability, T/C [6] of 11.7%. For the same compound, the viability, T/C [7] was 92.4%, the viability, T/C [8] was 99.3% and the viability, T/C [9] was 99.3%. The viability, T/C [10] was 97.5%, the viability, T/C [11] was 91.8% and the viability, T/C [12] was 10.3%. The viability, T/C [13] was 57.6%, the viability, T/C [14] was 60.3% and the viability, T/C [15] was 73.7%. For the same compound, the viability, T/C [16] was 87.1%, the viability, T/C [17] was 82.2% and the viability, T/C [18] was 8.31%. For the same compound, the viability, T/C [19] was 32.2%, the viability, T/C [20] was 36.7% and the viability, T/C [21] was 40.8%. For the same compound, the viability, T/C [22] was 49%, the viability, T/C [23] was 50.2% and the viability, T/C [24] was 5.09%. The viability, T/C [25] was 15.2%, the viability, T/C [26] was 16.1% and the viability, T/C [27] was 18.9%. It also gave a viability, T/C [28] of 21.9%, a viability, T/C [29] of 23.4% and a viability, T/C [30] of 2.52%. It also gave a viability, T/C [31] of 3.53%, a viability, T/C [32] of 3.46% and a viability, T/C [33] of 3.9%. For the same compound, the viability, T/C [34] was 5.16%, the viability, T/C [35] was 5.53% and the viability, T/C [36] was 2.11%.
